Results reported in patent publication US20080249156A1, “Combinations of statins and anti-obesity agent and glitazones” (priority 2007, published 2008).
Where two headings read alike, the source gives them in different places.

Assays:
[1] = not given; remark: listed apart in the source
[2] = Example 1, patient on rosiglitazone 4 mg once a day
[3] = Example 2, patient on rosiglitazone 4 mg twice a day and metformin 500 mg twice daily
[4] = Example 3, patient on rosiglitazone 8 mg once daily and metformin 500 mg once daily

total cholesterol since beginning the rosiglitazone therapy [1, 2]: increase
total cholesterol since beginning the rosiglitazone therapy [1, 3]: increase
total cholesterol since beginning the rosiglitazone therapy [1, 4]: increase
SMILES: CN(CCOc1ccc(CC2SC(=O)NC2=O)cc1)c1ccccn1 (stereo not drawn) [rosiglitazone]
body weight since beginning the rosiglitazone therapy [2]: increase
body weight since beginning the rosiglitazone therapy [3]: increase
body weight since beginning the rosiglitazone therapy [4]: increase
